ChEMBL document CHEMBL1938277, “N-acylaminophenothiazines: neuroprotective agents displaying multifunctional activities for a potential treatment of Alzheimer's disease” (Eur J Med Chem, 2011)

Legend:
SH-SY5Y [1] = assay: Neuroprotective activity against H2O2-induced cell death in human SH-SY5Y cells assessed as LDH release at 3 uM incubated for 24 hrs before H2O2 challenge measured after 24 hrs relative to control; assay type: functional
SH-SY5Y [2] = assay: Neuroprotective activity against H2O2-induced cell death in human SH-SY5Y cells assessed as LDH release at 10 uM incubated for 24 hrs before H2O2 challenge measured after 24 hrs relative to control; assay type: functional
SH-SY5Y [3] = assay: Neuroprotective activity against H2O2-induced cell death in human SH-SY5Y cells assessed as LDH release at 30 uM incubated for 24 hrs before H2O2 challenge measured after 24 hrs relative to control; assay type: functional
SH-SY5Y [4] = assay: Neuroprotective activity against H2O2-induced cell death in human SH-SY5Y cells assessed as LDH release at 1 uM incubated for 24 hrs before H2O2 challenge measured after 24 hrs relative to control; assay type: functional
Acetylcholinesterase = biological target: T1, Acetylcholinesterase (Bos taurus, UniProt P23795); assay: biochemical
T1 sequence (P23795 whole entry): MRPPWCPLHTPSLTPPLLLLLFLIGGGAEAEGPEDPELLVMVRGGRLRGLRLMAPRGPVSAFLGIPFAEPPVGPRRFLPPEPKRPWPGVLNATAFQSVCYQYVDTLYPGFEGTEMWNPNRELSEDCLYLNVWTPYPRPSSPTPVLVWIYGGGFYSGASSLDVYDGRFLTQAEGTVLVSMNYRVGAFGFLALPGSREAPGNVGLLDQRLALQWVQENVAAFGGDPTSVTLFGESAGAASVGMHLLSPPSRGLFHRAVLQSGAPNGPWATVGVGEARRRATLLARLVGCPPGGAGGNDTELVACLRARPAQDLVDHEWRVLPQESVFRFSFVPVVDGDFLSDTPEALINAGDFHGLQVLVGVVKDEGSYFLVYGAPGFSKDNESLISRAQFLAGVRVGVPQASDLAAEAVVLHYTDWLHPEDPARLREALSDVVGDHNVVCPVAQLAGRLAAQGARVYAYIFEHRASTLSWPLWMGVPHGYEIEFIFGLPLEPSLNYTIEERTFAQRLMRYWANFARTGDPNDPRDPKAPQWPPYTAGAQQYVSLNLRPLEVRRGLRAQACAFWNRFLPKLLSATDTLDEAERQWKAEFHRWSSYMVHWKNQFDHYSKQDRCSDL
Description: Inhibition of AChE in bovine erythrocytes using acetylthiocholine as substrate by Ellman method

in vitro = settings: PAMPA
Description: Permeability of the compound by PAMPA assay

Cholinesterase = Cholinesterase (Equus caballus, UniProt P81908)
Sequence of Cholinesterase (P81908 whole entry): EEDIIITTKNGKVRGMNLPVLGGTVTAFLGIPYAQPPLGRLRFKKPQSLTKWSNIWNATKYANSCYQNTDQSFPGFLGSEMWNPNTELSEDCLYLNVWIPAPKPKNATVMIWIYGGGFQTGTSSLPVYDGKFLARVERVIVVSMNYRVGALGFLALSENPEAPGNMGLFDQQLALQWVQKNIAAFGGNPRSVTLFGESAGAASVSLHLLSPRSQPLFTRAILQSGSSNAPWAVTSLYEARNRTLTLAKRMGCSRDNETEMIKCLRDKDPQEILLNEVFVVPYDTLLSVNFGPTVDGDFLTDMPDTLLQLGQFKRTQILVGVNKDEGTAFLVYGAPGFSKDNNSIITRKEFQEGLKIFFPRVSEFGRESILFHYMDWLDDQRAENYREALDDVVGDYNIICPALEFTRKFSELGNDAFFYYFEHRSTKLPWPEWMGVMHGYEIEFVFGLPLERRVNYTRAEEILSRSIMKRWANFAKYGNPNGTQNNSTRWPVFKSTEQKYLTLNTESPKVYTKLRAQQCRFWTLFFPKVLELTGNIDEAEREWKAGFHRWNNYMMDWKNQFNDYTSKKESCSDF
Description: Inhibition of BuChE in horse serum using butyrylthiocholine as substrate by Ellman method

SH-SY5Y [5] = assay: Neuroprotective activity against FPL64176-induced toxicity in human SH-SY5Y cells assessed as increase in cell viability at 0.3 uM treated 24 hrs before FPL64176 challenge measured after 24 hrs by MTT assay relative to control; assay type: functional
SH-SY5Y [6] = assay: Neuroprotective activity against okadaic acid-induced cell death in human SH-SY5Y cells assessed as LDH release at 1 uM treated 24 hrs before okadaic acid challenge measured after 24 hrs relative to control; assay type: functional
SH-SY5Y [7] = assay: Neuroprotective activity against okadaic acid-induced cell death in human SH-SY5Y cells assessed as LDH release at 0.3 uM treated 24 hrs before okadaic acid challenge measured after 24 hrs relative to control; assay type: functional
SH-SY5Y [8] = assay: Neuroprotective activity against amyloid beta 1 to 42-induced cell death in human SH-SY5Y cells assessed as increase in cell viability at 1 uM pre-incubated for 24 hrs before amyloid beta 1 to 42 challenge measured after 24 hrs by MTT assay relative to control; assay type: functional
SH-SY5Y [9] = assay: Neuroprotective activity against rotenone/oligomycin A-induced cell death in human SH-SY5Y cells assessed as LDH release at 1 uM treated 24 hrs before rotenone/oligomycin A challenge measured after 24 hrs relative to control; assay type: functional
SH-SY5Y [10] = assay: Neuroprotective activity against rotenone/oligomycin A-induced cell death in human SH-SY5Y cells assessed as LDH release at […] after 24 hrs relative to control; assay type: functional
SH-SY5Y [11] = assay: Neuroprotective activity against rotenone/oligomycin A-induced cell death in human SH-SY5Y cells assessed as LDH release at 0.3 uM after 24 hrs relative to control; assay type: functional
SH-SY5Y [12] = assay: Neuroprotective activity against amyloid beta 1 to 42-induced cell death in human SH-SY5Y cells assessed as increase in cell viability at 0.3 uM pre-incubated for 24 hrs before amyloid beta 1 to 42 challenge measured after 24 hrs by MTT assay relative to control; assay type: functional
SH-SY5Y [13] = assay: Antioxidant activity in human SH-SY5Y cells assessed as sequestering of rotenone/oligomycin A-induced mitochondrial free radicals at 0.3 uM after 120 mins by DCFH-DA assay; assay type: functional
SH-SY5Y [14] = assay: Neuroprotective activity against FPL64176-induced toxicity in human SH-SY5Y cells assessed as increase in cell viability at 1 uM treated 24 hrs before FPL64176 challenge measured after 24 hrs by MTT assay relative to control; assay type: functional
SH-SY5Y [15] = assay: Cytotoxicity against human SH-SY5Y cells; assay type: cell-based
SH-SY5Y [16] = assay: Neuroprotective activity against okadaic acid-induced cell death in human SH-SY5Y cells assessed as LDH release at 3 uM treated 24 hrs before okadaic acid challenge measured after 24 hrs relative to control; assay type: functional
SH-SY5Y [17] = assay: Neuroprotective activity against rotenone/oligomycin A-induced cell death in human SH-SY5Y cells assessed as LDH release at 0.3 uM treated 24 hrs before rotenone/oligomycin A challenge measured after 24 hrs relative to control; assay type: functional
SH-SY5Y [18] = assay: Neuroprotective activity against FPL64176-induced toxicity in human SH-SY5Y cells assessed as increase in cell viability at 10 uM treated 24 hrs before FPL64176 challenge measured after 24 hrs by MTT assay relative to control; assay type: functional
SH-SY5Y [19] = assay: Neuroprotective activity against rotenone/oligomycin A-induced cell death in human SH-SY5Y cells assessed as LDH release at 1 uM after 24 hrs relative to control; assay type: functional
SH-SY5Y [20] = assay: Neuroprotective activity against rotenone/oligomycin A-induced cell death in human SH-SY5Y cells assessed as LDH release at 3 uM treated 24 hrs before rotenone/oligomycin A challenge measured after 24 hrs relative to control; assay type: functional
SH-SY5Y [21] = assay: Neuroprotective activity against amyloid beta 1 to 42-induced cell death in human SH-SY5Y cells assessed as increase in cell viability at 3 uM pre-incubated for 24 hrs before amyloid beta 1 to 42 challenge measured after 24 hrs by MTT assay relative to control; assay type: functional

| Structure (SMILES) | Activity (SH-SY5Y [1]) [%] | Activity (SH-SY5Y [2]) [%] | Activity (SH-SY5Y [3]) [%] | Activity (SH-SY5Y [4]) [%] | IC50 (Acetylcholinesterase) [µM] | Papp (in vitro) [×10⁻⁶ cm/s] | IC50 (Cholinesterase) [µM] | further results |
| --- | --- | --- | --- | --- | --- | --- | --- | --- |
| O=C(CN1CCCCC1)NN1c2ccccc2Sc2ccccc21 | 26.1 | 9.7 | 10.1 | 27.2 | > 100 | 16.4 | 0.4 | – |
| O=C(CN1CCCC1)NN1c2ccccc2Sc2cc(Cl)ccc21 | 57.7 | 79.9 | 69.5 | 54.6 | > 100 | 14.9 | 1 | Activity (SH-SY5Y [5]): 39.8%; Activity (SH-SY5Y [6]): 32%; Activity (SH-SY5Y [7]): 28.3%; Activity (SH-SY5Y [8]): 81.3%; Activity (SH-SY5Y [9]): 51.8%; Activity (SH-SY5Y [10]): 44.3%; Activity (SH-SY5Y [11]): 28.6%; Activity (SH-SY5Y [12]): 91.3%; Activity (SH-SY5Y [13]): 14.7%; Activity (SH-SY5Y [14]): 44.5%; Activity (SH-SY5Y [15]): Non-toxic; Activity (SH-SY5Y [16]): 29%; Activity (SH-SY5Y [17]): 55%; Activity (SH-SY5Y [18]): 36.3%; Activity (SH-SY5Y [19]): 44.1%; Activity (SH-SY5Y [20]): 58.9%; Activity (SH-SY5Y [21]): 13.6% |
| O=C(CN1CCCCC1)NN1c2ccccc2Sc2ccc(Cl)cc21 | 80.8 | 73.8 | 76.4 | 66.1 | > 100 | 9.1 | > 100 | – |
| CN(C)CC(=O)NN1c2ccccc2Sc2ccc(Cl)cc21 | 29.5 | 42.6 | 23.2 | 15.6 | > 100 | 13.5 | 7.1 | – |
| CN1CCN(CCC(=O)NN2c3ccccc3Sc3cc(Cl)ccc32)CC1 | 56.6 | 68.6 | 72.8 | 43.9 | > 100 | 13.8 | 0.9 | – |
| O=C(CN1CCCCC1)NN1c2ccccc2Sc2cc(Cl)ccc21 | 55.2 | 44.9 | 17.8 | 25.4 | > 100 | 14.7 | 0.7 | – |
| O=C(CCN1CCCC1)NN1c2ccccc2Sc2cc(Cl)ccc21 | 57.2 | 29.4 | 49 | 34.4 | > 100 | 16.4 | 3 | – |
| CN(C)CC(=O)NN1c2ccccc2Sc2ccccc21 | 26.3 | 38.6 | 22 | 30.5 | > 100 | 18.3 | 1.7 | – |
| COc1ccc2c(c1)Sc1ccccc1N2NC(=O)CCN1CCCC1 | 11.8 | 0 | 0 | 17.8 | > 100 | 8.7 | 0.8 | – |
| O=C(CN1CCCC1)NN1c2ccccc2Sc2ccccc21 | 35.6 | 18.9 | 23.3 | 13.1 | > 100 | 10.5 | 0.8 | – |
| CC(=O)NN1c2ccccc2Sc2cc(Cl)ccc21 | 52.2 | 37.2 | 21.2 | 40.3 | > 100 | 9.8 | > 100 | – |
